Laboratory results published in US20120094998A1, “Oligomer-Protein Tyrosine Kinase Inhibitor Conjugates” (Nektar Therapeutics, priority 2009, published 2012).

Assays:
Format in all cases: biochemical
Conditions in all cases: for inhibition at 0.01 µM: 10 nM
PRAK = molecular target: T1, PRAK (Homo sapiens, UniProt Q8IW41); test: Activity against various protein tyrosine kinases: PRAK
T1 sequence (Q8IW41 1-473): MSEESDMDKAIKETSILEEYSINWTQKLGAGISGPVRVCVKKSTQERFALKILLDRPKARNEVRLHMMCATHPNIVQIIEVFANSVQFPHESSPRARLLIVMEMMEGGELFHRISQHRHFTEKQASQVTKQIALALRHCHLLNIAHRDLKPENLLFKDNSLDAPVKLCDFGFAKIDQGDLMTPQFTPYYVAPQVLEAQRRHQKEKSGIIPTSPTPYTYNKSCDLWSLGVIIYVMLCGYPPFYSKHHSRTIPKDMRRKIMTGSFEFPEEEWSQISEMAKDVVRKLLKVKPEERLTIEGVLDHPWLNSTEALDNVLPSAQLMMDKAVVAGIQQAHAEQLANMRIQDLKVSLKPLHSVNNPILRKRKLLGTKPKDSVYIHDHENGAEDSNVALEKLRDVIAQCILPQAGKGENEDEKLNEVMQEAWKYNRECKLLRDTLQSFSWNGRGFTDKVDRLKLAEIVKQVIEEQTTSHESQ
Procedure: (§1) Using techniques know those of ordinary skill in the art, compounds were tested for activity against various protein tyrosine kinases.

FGFR2 = FGFR2 (Homo sapiens, UniProt P21802); test: Activity against various protein tyrosine kinases: FGFR2
Procedure: as §1

CK1d = CK1d (Homo sapiens, UniProt P48730); test: Activity against various protein tyrosine kinases: CK1d
Procedure: as §1

AKT2 = AKT2 (Homo sapiens, UniProt P31751); test: Activity against various protein tyrosine kinases: AKT2
Procedure: as §1

PKCz = molecular target: T2, PKCz (Homo sapiens, UniProt Q05513); test: Activity against various protein tyrosine kinases: PKCz
T2 sequence (Q05513 1-592): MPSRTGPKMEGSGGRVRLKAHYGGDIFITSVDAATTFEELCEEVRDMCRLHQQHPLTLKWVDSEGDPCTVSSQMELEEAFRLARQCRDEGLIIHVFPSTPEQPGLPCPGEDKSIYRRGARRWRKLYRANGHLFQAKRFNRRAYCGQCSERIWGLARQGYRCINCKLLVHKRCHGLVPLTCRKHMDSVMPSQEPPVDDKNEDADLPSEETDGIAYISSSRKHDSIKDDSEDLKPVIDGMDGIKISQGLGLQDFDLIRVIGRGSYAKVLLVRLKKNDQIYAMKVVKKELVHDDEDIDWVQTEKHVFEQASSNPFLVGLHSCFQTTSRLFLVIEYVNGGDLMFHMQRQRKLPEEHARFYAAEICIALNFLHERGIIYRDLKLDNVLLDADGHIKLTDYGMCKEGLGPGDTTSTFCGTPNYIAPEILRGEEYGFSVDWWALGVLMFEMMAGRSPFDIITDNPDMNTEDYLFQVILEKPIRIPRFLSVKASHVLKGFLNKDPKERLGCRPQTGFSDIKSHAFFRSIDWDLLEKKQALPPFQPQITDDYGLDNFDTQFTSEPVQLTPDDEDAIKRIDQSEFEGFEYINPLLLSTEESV
Procedure: as §1

AurA = molecular target: T3, AurA (Homo sapiens, UniProt O14965); test: Activity against various protein tyrosine kinases: AurA
T3 sequence (O14965 1-403): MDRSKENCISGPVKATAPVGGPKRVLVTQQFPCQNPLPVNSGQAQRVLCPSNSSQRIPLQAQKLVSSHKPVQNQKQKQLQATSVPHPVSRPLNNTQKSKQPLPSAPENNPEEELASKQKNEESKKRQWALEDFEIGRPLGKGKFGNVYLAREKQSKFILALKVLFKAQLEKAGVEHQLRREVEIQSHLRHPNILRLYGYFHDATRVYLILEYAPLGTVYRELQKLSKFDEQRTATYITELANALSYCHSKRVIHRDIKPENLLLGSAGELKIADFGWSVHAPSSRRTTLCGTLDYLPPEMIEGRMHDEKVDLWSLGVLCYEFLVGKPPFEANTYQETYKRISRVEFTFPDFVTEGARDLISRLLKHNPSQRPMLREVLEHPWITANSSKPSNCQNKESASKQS
Procedure: as §1

FGFR4 = FGFR4 (Homo sapiens, UniProt P22455); test: Activity against various protein tyrosine kinases: FGFR4
Procedure: as §1

CHK2 = CHK2 (Homo sapiens, UniProt O96017); test: Activity against various protein tyrosine kinases: CHK2
Procedure: as §1

Erk2 = Erk2 (Homo sapiens, UniProt P28482); test: Activity against various protein tyrosine kinases: Erk2
Procedure: as §1

PDGFR_alpha = PDGFR_alpha (Homo sapiens, UniProt P16234); test: Activity against various protein tyrosine kinases: PDGFR_alpha
Procedure: as §1

FGFR1 = FGFR1 (Homo sapiens, UniProt P11362); test: Activity against various protein tyrosine kinases: FGFR1
Procedure: as §1

FYN = FYN (Homo sapiens, UniProt P06241); test: Activity against various protein tyrosine kinases: FYN
Procedure: as §1

YES = YES (Homo sapiens, UniProt P07947); test: Activity against various protein tyrosine kinases: YES
Procedure: as §1

Chain of FGFR4 (P22455 22-802, species assumed): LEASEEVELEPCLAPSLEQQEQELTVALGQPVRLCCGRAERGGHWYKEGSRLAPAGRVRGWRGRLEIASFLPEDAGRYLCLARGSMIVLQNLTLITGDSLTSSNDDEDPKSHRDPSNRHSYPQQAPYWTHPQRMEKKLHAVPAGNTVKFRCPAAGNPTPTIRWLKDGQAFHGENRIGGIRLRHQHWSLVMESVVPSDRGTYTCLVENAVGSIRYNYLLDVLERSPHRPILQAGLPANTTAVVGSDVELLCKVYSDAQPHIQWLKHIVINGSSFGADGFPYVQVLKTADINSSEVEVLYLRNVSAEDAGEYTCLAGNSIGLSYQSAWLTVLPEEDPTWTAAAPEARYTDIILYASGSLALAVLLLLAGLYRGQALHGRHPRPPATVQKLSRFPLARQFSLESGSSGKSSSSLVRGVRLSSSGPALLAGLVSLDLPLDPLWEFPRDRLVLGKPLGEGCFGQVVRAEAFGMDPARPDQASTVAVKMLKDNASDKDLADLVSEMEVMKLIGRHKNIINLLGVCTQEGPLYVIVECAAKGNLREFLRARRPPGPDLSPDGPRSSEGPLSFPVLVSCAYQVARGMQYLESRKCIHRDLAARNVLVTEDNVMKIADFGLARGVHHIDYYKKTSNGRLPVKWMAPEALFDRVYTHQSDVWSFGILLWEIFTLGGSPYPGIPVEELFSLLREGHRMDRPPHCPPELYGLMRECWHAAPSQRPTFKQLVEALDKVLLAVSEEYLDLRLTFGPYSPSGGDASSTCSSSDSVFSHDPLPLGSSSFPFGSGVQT
Chain of FYN (P06241 whole entry, species assumed): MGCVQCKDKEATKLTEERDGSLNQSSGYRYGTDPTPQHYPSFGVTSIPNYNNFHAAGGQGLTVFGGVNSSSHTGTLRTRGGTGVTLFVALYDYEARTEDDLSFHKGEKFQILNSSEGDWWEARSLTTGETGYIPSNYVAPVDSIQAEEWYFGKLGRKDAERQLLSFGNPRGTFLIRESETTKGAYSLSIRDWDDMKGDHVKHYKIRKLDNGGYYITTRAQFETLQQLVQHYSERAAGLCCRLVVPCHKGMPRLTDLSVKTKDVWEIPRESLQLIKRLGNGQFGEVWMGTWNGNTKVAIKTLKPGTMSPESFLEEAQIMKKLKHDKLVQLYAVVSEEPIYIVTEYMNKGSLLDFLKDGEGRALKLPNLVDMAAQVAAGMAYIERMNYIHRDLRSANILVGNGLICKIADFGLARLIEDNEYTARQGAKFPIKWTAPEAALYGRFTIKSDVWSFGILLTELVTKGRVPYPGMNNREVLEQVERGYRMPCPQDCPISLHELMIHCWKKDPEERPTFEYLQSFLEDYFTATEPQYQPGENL
Chain of FGFR1 (P11362 22-822, species assumed): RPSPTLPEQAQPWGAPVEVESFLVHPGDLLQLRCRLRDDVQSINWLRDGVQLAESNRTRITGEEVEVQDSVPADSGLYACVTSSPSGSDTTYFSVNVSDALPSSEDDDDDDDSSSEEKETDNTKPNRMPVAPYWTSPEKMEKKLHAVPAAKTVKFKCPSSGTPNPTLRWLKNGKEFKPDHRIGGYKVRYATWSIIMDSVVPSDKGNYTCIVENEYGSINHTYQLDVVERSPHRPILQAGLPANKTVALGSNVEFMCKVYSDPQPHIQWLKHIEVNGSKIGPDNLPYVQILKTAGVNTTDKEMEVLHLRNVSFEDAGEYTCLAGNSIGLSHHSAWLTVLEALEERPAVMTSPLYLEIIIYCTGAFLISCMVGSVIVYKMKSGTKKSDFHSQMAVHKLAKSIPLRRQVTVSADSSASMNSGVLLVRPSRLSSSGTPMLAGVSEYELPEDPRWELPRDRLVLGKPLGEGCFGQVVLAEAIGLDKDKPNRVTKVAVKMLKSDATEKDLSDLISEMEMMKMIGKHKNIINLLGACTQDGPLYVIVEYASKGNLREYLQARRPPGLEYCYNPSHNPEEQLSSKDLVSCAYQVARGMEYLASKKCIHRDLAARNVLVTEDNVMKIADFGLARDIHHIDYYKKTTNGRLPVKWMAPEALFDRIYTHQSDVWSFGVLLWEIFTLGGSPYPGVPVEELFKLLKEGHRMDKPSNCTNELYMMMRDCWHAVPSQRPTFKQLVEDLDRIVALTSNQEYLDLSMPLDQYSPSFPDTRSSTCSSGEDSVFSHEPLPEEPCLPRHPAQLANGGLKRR
Chain of YES (P07947 whole entry, species assumed): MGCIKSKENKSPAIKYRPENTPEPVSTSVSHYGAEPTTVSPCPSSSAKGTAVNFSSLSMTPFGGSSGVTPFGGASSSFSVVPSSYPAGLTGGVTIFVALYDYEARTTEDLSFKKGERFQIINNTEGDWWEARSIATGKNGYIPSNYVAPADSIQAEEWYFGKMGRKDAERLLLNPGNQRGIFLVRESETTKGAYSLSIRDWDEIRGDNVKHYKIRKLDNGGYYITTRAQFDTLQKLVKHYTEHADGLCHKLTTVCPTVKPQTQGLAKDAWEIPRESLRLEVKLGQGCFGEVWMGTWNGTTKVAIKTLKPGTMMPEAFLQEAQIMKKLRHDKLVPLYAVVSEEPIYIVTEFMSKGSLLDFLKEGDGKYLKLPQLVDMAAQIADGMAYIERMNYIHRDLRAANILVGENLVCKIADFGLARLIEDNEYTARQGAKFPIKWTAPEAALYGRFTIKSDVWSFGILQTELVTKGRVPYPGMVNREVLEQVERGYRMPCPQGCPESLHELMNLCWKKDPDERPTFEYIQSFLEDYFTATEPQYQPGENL
Chain of Erk2 (P28482 whole entry, species assumed): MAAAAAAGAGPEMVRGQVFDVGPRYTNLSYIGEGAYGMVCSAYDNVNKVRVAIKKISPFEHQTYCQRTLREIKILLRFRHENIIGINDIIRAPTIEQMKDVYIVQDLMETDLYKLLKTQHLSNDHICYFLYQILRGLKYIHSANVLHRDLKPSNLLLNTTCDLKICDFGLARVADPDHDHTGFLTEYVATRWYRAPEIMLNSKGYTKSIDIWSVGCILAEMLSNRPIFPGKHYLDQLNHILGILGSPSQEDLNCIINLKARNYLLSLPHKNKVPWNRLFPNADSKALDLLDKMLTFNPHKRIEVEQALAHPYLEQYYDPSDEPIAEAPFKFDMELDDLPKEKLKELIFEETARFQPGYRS
Chain of CK1d (P48730 whole entry): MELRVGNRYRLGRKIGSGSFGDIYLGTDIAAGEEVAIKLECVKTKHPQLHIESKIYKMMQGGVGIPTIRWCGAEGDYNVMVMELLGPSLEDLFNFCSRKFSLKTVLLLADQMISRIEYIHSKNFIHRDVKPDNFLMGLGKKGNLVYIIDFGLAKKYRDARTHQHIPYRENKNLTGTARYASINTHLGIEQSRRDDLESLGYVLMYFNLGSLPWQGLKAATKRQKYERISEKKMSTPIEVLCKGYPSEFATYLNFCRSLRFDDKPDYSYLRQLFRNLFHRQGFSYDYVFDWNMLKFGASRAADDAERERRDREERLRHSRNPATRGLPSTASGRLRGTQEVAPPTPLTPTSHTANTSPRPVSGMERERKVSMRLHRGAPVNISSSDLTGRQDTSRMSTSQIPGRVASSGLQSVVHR
Chain of FGFR2 (P21802 22-821, species assumed): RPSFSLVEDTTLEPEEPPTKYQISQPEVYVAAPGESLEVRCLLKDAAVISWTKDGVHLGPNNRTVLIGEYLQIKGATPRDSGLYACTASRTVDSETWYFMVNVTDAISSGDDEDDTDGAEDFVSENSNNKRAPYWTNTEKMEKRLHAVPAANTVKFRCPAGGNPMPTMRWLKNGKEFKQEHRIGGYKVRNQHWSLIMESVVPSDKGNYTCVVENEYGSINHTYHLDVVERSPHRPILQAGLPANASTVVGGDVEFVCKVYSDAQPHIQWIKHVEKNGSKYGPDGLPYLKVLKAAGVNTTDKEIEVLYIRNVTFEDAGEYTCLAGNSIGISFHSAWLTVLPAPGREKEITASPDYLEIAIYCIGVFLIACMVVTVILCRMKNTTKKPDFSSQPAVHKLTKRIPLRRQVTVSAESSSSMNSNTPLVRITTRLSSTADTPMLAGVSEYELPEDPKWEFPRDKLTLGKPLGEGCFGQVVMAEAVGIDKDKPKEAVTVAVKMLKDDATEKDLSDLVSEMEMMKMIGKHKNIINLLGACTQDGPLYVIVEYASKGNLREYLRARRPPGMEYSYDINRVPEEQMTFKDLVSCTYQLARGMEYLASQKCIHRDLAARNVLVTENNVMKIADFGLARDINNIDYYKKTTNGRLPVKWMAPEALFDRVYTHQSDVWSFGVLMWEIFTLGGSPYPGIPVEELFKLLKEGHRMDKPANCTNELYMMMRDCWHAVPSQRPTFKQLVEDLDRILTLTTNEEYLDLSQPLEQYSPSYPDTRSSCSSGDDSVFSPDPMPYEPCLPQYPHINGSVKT
Chain of CHK2 (O96017 whole entry, species assumed): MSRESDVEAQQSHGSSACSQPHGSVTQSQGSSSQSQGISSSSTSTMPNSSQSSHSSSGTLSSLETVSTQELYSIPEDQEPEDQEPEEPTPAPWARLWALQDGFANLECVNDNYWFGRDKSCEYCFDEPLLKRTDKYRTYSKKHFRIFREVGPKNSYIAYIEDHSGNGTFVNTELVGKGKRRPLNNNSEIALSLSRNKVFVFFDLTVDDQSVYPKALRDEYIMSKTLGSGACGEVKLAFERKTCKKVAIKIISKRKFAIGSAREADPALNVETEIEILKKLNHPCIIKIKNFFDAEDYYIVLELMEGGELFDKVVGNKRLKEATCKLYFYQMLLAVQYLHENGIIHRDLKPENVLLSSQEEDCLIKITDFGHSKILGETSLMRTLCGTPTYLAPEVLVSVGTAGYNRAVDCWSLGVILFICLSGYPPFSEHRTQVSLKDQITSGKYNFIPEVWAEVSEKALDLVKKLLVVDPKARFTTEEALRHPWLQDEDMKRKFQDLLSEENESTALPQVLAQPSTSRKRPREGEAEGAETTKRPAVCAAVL

Work on Cc1nc(Nc2ncc(C(=O)Nc3c(C)cccc3Cl)s2)cc(N2CCN(CCO)CC2)n1 [Dasatinib, reference compound] yielded an inhibition at 0.01 µM (PRAK) of -2%, an inhibition at 0.01 µM (FGFR2) of 3% and an inhibition at 1 µM (FGFR2) of 36%. The inhibition at 0.01 µM (CK1d) was 1%, the inhibition at 1 µM (AKT2) was -2% and the inhibition at 0.01 µM (PKCz) was 2%. It also gave an inhibition at 0.01 µM (AurA) of -2%, an inhibition at 0.01 µM (FGFR4) of -2% and an inhibition at 0.01 µM (CHK2) of 3%. It also gave an inhibition at 0.01 µM (Erk2) of -2% and an inhibition at 0.01 µM (PDGFR_alpha) of 10%.
COCCOCCOCCNC(=O)OCCN1CCN(c2cc(Nc3ncc(C(=O)Nc4c(C)cccc4Cl)s3)nc(C)n2)CC1 [mPEG3-NHCOO-Dasatinib] showed an inhibition at 0.01 µM (PRAK) of 6%, an inhibition at 1 µM (PRAK) of 4% and an inhibition at 0.01 µM (FGFR2) of -2%. The inhibition at 1 µM (FGFR2) was 38%, the inhibition at 0.01 µM (FGFR1) was 11% and the inhibition at 1 µM (FGFR1) was -3%. For the same molecule, the inhibition at 0.01 µM (CK1d) was 1%, the inhibition at 1 µM (CK1d) was 3% and the inhibition at 0.01 µM (AKT2) was 9%. The inhibition at 1 µM (AKT2) was 7%, the inhibition at 0.01 µM (PKCz) was -12% and the inhibition at 1 µM (PKCz) was -13%. The inhibition at 0.01 µM (AurA) was -7%, the inhibition at 1 µM (AurA) was 19% and the inhibition at 0.01 µM (FYN) was 98%. It also gave an inhibition at 1 µM (FYN) of 99%, an inhibition at 0.01 µM (YES) of 100% and an inhibition at 1 µM (YES) of 100%. It also gave an inhibition at 0.01 µM (FGFR4) of 3%, an inhibition at 1 µM (FGFR4) of 6% and an inhibition at 0.01 µM (CHK2) of 1%. The inhibition at 1 µM (CHK2) was 11%, the inhibition at 0.01 µM (Erk2) was 6% and the inhibition at 1 µM (Erk2) was 11%. For the same molecule, the inhibition at 0.01 µM (PDGFR_alpha) was 58% and the inhibition at 1 µM (PDGFR_alpha) was 99%.
COCCOCCOCCOCCOCCOCCOCCNC(=O)OCCN1CCN(c2cc(Nc3ncc(C(=O)Nc4c(C)cccc4Cl)s3)nc(C)n2)CC1 [mPEG7-NHCOO-Dasatinib] showed an inhibition at 0.01 µM (PRAK) of 8%, an inhibition at 1 µM (PRAK) of 0% and an inhibition at 0.01 µM (FGFR2) of 5%. It also gave an inhibition at 1 µM (FGFR2) of 35%, an inhibition at 0.01 µM (FGFR1) of 2% and an inhibition at 1 µM (FGFR1) of 3%. The inhibition at 0.01 µM (CK1d) was 0%, the inhibition at 1 µM (CK1d) was 9% and the inhibition at 0.01 µM (AKT2) was 3%. The inhibition at 1 µM (AKT2) was 3%, the inhibition at 0.01 µM (PKCz) was 5% and the inhibition at 1 µM (PKCz) was -9%. The inhibition at 0.01 µM (AurA) was 3%, the inhibition at 1 µM (AurA) was 28% and the inhibition at 0.01 µM (FYN) was 98%. It also gave an inhibition at 1 µM (FYN) of 98%, an inhibition at 0.01 µM (YES) of 100% and an inhibition at 1 µM (YES) of 102%. The inhibition at 0.01 µM (FGFR4) was 0%, the inhibition at 1 µM (FGFR4) was 2% and the inhibition at 0.01 µM (CHK2) was 2%. For the same molecule, the inhibition at 1 µM (CHK2) was 1%, the inhibition at 0.01 µM (Erk2) was 3% and the inhibition at 1 µM (Erk2) was 2%. For the same molecule, the inhibition at 0.01 µM (PDGFR_alpha) was 46% and the inhibition at 1 µM (PDGFR_alpha) was 98%.
